# In paper PMC4178217, “Quinoline 3-sulfonamides inhibit lactate dehydrogenase A and reverse aerobic glycolysis in cancer cells” (Cancer & Metabolism, 2013):
# Where “and” joins values, the source holds several entries; their conditions need not be identical. Identical values can stand only once.
# System: Snu398 cells
# Details: Snu-398 conditioned medium, 10 μM, 24 h
# Procedure: Ten million Snu398 or HepG2 cells per flask were plated in R10 medium in T150 tissue culture flasks and allowed to attach overnight. The following morning, medium was replaced with medium containing either DMSO or 10 μM LDHA inhibitor, and cells were incubated for 24 h at 37°C. The conditioned medium was collected and cells were washed, lifted by trypsinization and pelleted. Both medium and cell samples were submitted for mass spectroscopy (MS) analysis of over 500 individual metabolites. All samples were prepared in replicates of five.
smiles,measurement,value
COc1ncc(-c2ccc3c(Nc4cc(C(=O)O)cc(C5CCCC5)c4)c(S(=O)(=O)NC4CC4)cnc3c2)c(OC)n1 [Compound 2],fold change 1-oleoylglycerophosphocholine,1.05
same,fold change 1-palmitoleoylglycerophosphocholine*,0.90
same,fold change 1-palmitoylglycerophosphocholine,1.01
same,fold change 1-stearoylglycerophosphocholine,1.19
same,fold change 2'-O-methylguanosine,0.80
same,fold change 2-aminobutyrate,0.99
same,fold change 2-hydroxybutyrate (AHB),0.99
same,fold change 2-hydroxyglutarate,1.18
same,fold change 2-methylbutyroylcarnitine,1.01
same,fold change 2-methylbutyrylglycine,1.13
same,fold change 2-oleoylglycerophosphocholine*,0.98
same,fold change 2-palmitoylglycerophosphocholine*,1.26
same,fold change 2-stearoylglycerophosphocholine*,1.42
same,fold change 3-(4-hydroxyphenyl)lactate,0.97
same,fold change 3-dehydrocarnitine*,1.02
same,fold change 3-indoxyl sulfate,1.06
same,fold change 3-methyl-2-oxobutyrate,1.05
same,fold change 3-methyl-2-oxovalerate,1.03
same,fold change 4-acetamidobutanoate,0.90
same,fold change 4-guanidinobutanoate,0.77
same,fold change 4-methyl-2-oxopentanoate,1.21
same,fold change 5-oxoproline,1.19
same,fold change 6'-sialyllactose,1.11
same,fold change C-glycosyltryptophan*,0.98
same,fold change HEPES,0.97
same,"fold change Isobar: 2-propylpentanoic acid, 2-ethylhexanoic acid",1.15
same,fold change N1-methyladenosine,1.01
same,fold change N1-methylguanosine,0.95
same,fold change N6-carbamoylthreonyladenosine,0.91
same,fold change N-acetylaspartate (NAA),0.99
same,fold change N-acetylneuraminate,0.79
same,fold change N-acetylornithine,1.11
same,fold change X - 02952,0.28
same,fold change X - 02973,1.02
same,fold change X - 03090,1.76
same,fold change X - 04015,1.25
same,fold change X - 04133,1.17
same,fold change X - 04135,1.33
same,fold change X - 04148,1.14
same,fold change X - 04252,0.37
same,fold change X - 04357,3.15
same,fold change X - 05907,1.01
same,fold change X - 06126,0.91
same,fold change X - 06911,0.81
same,fold change X - 08172,1.18
same,fold change X - 08889,1.38
same,fold change X - 08895,0.98
same,fold change X - 09008,1.34
same,fold change X - 09026,1.05
same,fold change X - 10475,1.45
same,fold change X - 10476,1.32
same,fold change X - 10634,0.42
same,fold change X - 10740,0.87
same,fold change X - 10869,0.69
same,fold change X - 11081,1.19
same,fold change X - 11315,1.04
same,fold change X - 11533,0.87
same,fold change X - 11593,0.89
same,fold change X - 11787,0.94
same,fold change X - 12013,0.89
same,fold change X - 12015,1.01
same,fold change X - 12117,1.10
same,fold change X - 12216,0.96
same,fold change X - 12339,1.00
same,fold change X - 12435,0.96
same,fold change X - 12602,0.99
same,fold change X - 12729,1.00
same,fold change X - 12749,0.94
same,fold change X - 12776,1.11
same,fold change X - 12786,2.02
same,fold change X - 12792,1.10
same,fold change X - 12799,0.97
same,fold change X - 12944,1.00
same,fold change X - 13100,0.98
same,fold change X - 13103,0.98
same,fold change X - 13104,1.21
same,fold change X - 13110,1.01
same,fold change X - 13115,0.80
same,fold change X - 13117,0.96
same,fold change X - 13166,0.94
same,fold change X - 13483,0.87
same,fold change X - 13491,1.35
same,fold change X - 13494,1.24
same,fold change X - 13496,1.00
same,fold change X - 13507,1.11
same,fold change X - 13553,1.09
same,fold change X - 13581,2.54
same,fold change X - 13857,0.86
same,fold change X - 14056,1.73
same,fold change X - 14574,1.45
same,fold change X - 14588,0.84
same,fold change X - 15558,1.10
same,fold change X - 15559,1.21
same,fold change X - 15562,1.10
same,fold change X - 15563,1.18
same,fold change X - 15678,1.19
same,fold change X - 15808,1.12
same,fold change X - 16103,0.95
same,fold change X - 16116,0.82
same,fold change X - 16200,1.20
same,fold change X - 16206,1.03
same,fold change X - 16439,1.19
same,fold change X - 16444,1.03
same,fold change X - 17112,0.96
same,fold change X - 17430,1.10
same,fold change acetylcarnitine,0.97
same,fold change acetylphosphate,1.00
same,fold change alanine,1.20
same,fold change alanylglutamine,0.94
same,fold change allantoin,1.08
same,fold change arabitol,1.09
same,fold change arachidonate (20:4n6),1.01
same,fold change arginine,0.98
same,fold change asparagine,0.74
same,fold change aspartate,1.09
same,fold change aspartylleucine,0.96
same,fold change beta-alanine,0.86
same,fold change beta-hydroxyisovalerate,0.93
same,fold change beta-hydroxypyruvate,1.05
same,fold change betaine,1.00
same,fold change biotin,0.97
same,fold change butyrylcarnitine,0.76
same,fold change caproate (6:0),1.01
same,fold change caprylate (8:0),1.04
same,fold change carnitine,0.93
same,fold change catechol sulfate,1.01
same,fold change choline,0.97
same,fold change citrate,1.02
same,fold change citrulline,0.95
same,fold change creatine,1.01
same,fold change creatinine,1.07
same,fold change cyclo(leu-ala),0.93
same,fold change cysteine,1.01
same,fold change cysteine sulfinic acid,0.95
same,fold change cysteine-glutathione disulfide,1.41
same,fold change deoxycarnitine,0.95
same,fold change dimethyl sulfoxide*,1.03
same,fold change dimethylarginine (SDMA + ADMA),1.30
same,fold change docosahexaenoate (DHA; 22:6n3),1.03
same,fold change docosapentaenoate (n3 DPA; 22:5n3),0.89
same,fold change erythritol,1.01
same,fold change erythronate*,0.96
same,fold change ethanolamine,1.09
same,fold change folate,1.00
same,fold change fructose,1.01
same,fold change fumarate,0.99
same,fold change gamma-glutamylisoleucine*,0.74
same,fold change gamma-glutamylleucine,0.89
same,fold change gamma-glutamylphenylalanine,1.18
same,fold change gamma-glutamylvaline,0.85
same,fold change glucose,1.07
same,fold change glutamate,1.05
same,fold change glutamine,1.15
same,fold change glycerate,1.15
same,fold change glycerol,1.10
same,fold change glycerol 3-phosphate (G3P),0.95
same,fold change glycerophosphorylcholine (GPC),0.86
same,fold change glycine,1.06
same,fold change glycochenodeoxycholate,0.90
same,fold change glycocholate,1.02
same,fold change glycylglycine,0.90
same,fold change glycylleucine,0.84
same,fold change glycyltyrosine,0.99
same,fold change glycylvaline,0.96
same,fold change heme*,0.94
same,fold change hexadecanedioate,1.07
same,fold change hippurate,0.98
same,fold change histidine,1.01
same,fold change homostachydrine*,1.01
same,fold change hydroquinone,0.85
same,fold change indolelactate,1.02
same,fold change isobutyrylcarnitine,1.03
same,fold change isoleucine,0.96
same,fold change isovalerate,0.68
same,fold change isovalerylcarnitine,1.02
same,fold change kynurenate,1.10
same,fold change kynurenine,1.07
same,fold change lactate,0.94
same,fold change leucine,0.95
same,fold change lysine,0.51
same,fold change lysylleucine,0.85
same,fold change malate,0.95
same,fold change mannitol,0.82
same,fold change methionine,0.94
same,fold change myo-inositol,0.98
same,fold change nicotinamide,0.87
same,fold change ornithine,0.80
same,fold change p-aminobenzoate (PABA),0.98
same,fold change p-cresol sulfate,0.96
same,fold change palmitoyl sphingomyelin,0.96
same,fold change pantothenate,0.98
same,fold change phenol red,0.99
same,fold change phenol sulfate,1.00
same,fold change phenylacetylglycine,0.95
same,fold change phenylalanine,0.89
same,fold change phosphate,1.01
same,fold change pipecolate,1.02
same,fold change pro-hydroxy-pro,1.06
same,fold change proline,1.13
same,fold change propionylcarnitine,0.95
same,fold change pseudouridine,1.02
same,fold change putrescine,0.82
same,fold change pyridoxate,0.95
same,fold change pyridoxine (Vitamin B6),1.02
same,fold change pyruvate,3 and 2.66
same,fold change ribitol,1.06
same,fold change riboflavin (Vitamin B2),1.02
same,fold change scyllo-inositol,0.89
same,fold change serine,0.84
same,fold change serotonin (5HT),1.03
same,fold change sorbitol,0.98
same,fold change succinate,0.98
same,fold change taurocholate,0.89
same,fold change taurodeoxycholate,0.96
same,fold change tetradecanedioate,0.80
same,fold change thiamin (Vitamin B1),1.12
same,fold change threitol,0.96
same,fold change threonine,0.96
same,fold change trans-4-hydroxyproline,1.06
same,fold change tryptophan,0.90
same,fold change tyrosine,0.91
same,fold change uracil,0.99
same,fold change urea,1.10
same,fold change uridine,1.20
same,fold change valerylcarnitine,0.97
same,fold change valine,0.95
same,fold change xylitol,1.13
